Results as given in patent publication EP0386044B1, “HYPOGLYCAEMIC PEPTIDES” (MONASH UNIVERSITY, priority 1987, dated 1997).
Where no end group is shown, it is not given here. [ ]: non-standard residue; d: D form.

Columns and labels:
mice = assay: In vivo testing for insulin-potentiating activity on untrained and trained mice; conditions: untrained female mice and untrained or trained male mice, 2.3 or 2.4 mg/kg peptide in 0.2 ml saline, insulin injected at t0; Figures 12 and 13
Protocol: The dotted lines represent control animals (injected with 0.2 ml of saline) in each case. The unbroken lines represent test animals (injected with 2.4 mg/Kg of peptide in 0.2 ml of saline). Insulin was injected at to. • Figure 13 represents in vivo testing of peptides for insulin-potentiating activity on "untrained" and "trained" male mice. The dotted line represents the mean fall in blood glucose for control animals (injected with 0.2 ml of saline). The unbroken line represents the mean fall in blood glucose for test animals, injected with 2.3 mg/kg of peptide in 0.2 ml of saline, except for (a), in which the dose was 2.4 mg/kg. • (a) Pep 6-13 (Gln^11Asp^12), "untrained" • (b) Pep 6-13 (Gln^11Asp^12), "trained" • (c) Pep 6-13 (Asn^11Asp^12), "trained" • (d) Pep 6-13 (Asp^12), "trained" Insulin was injected at to.
The dose of Pep (6-13) was 200 µg/Kg body weight. Similarly, various forms of the peptide according to the invention in its β imide form potentiate the hypoglycaemic effect of insulin on "untrained" male and female mice. The effect on trained male mice trained to feed on schedule as described above was less striking, but still significant in some cases.

[1] = tested on: cultured muscle cells (L6 rat skeletal muscle cell line); assay: Cultured cell assay for stimulation of glucose uptake; assay type: cell-based; conditions: peptide 10µg/ml
Excerpt: In these assays collagenase-dispersed rat adipocytes, cultured muscle cells (L6 rat skeletal muscle cell line) and hemidiaphragm preparations were employed.
The effect of the β imide form peptides on glucose metabolism is further shown by their ability to stimulate glucose uptake and glycogen synthesis by cultured muscle cells and isolated rat hemidiaphragms.

rats = assay: Decrease in blood glucose level in rats following intravenous injection of peptides; assay type: in vivo; conditions: for hypoglycaemic effect (change in blood glucose level), in words: injection of peptide, Table 2 and Figure 9; for Decrease in blood from basal / Difference from control mean: intravenous injection, peptide 0.5 µmol/100g; for Decrease in blood from basal: change of blood glucose from basal level (4.0 - 4.4 mmol glucose/l) at time 0, control 1.05; for Difference from control mean: difference of blood glucose decrease from control mean (1.05)
Excerpt: Values are changes (means ± SEM) of blood glucose from the basal level (4.0 - 4.4 mmol glucose/l) at time 0. Differences between the control and test groups were statistically evaluated according to Student's t-test. N.S. indicates 2P > 0.05.
Similar results are illustrated graphically in Figure 9.

Row | Substance | hypoglycaemic effect (change in blood glucose level), in words (rats) | Decrease in blood from basal (rats) | Difference from control mean (rats) | further results
1 | L-α-Asp at position 11 in hGH[6-13]: inactive control peptide, hGH[6-13] with L-α-Asp at position 11 and Asp at 12 (LSRLFDDA; UniProt P01241 32-39, looked up, variant N12D) | – | – | – | insulin-potentiating activity (mice): inactive
2 | LSRL[dF]DNA [Pep P057] | – | – | – | Rate of Increase from Basal [1]: 2.0 µmol glucose/hour
3 | Pep (6-12): synthetic peptide corresponding to residues 6-12 of human growth hormone, α form (LSRLFDN; UniProt P01241 32-38, looked up, fragment) | active only in the β imide form | 1.00 | -0.05 | –
4 | Pep (6-13) Ala^11 α form: variant Ala^11 of Pep (6-13), α form (LSRLFANA; UniProt P01241 32-39, looked up, variant D11A) | inactive | – | – | –
5 | Pep (6-13) Gly^10 α form: variant Gly^10 of Pep (6-13), α form (LSRLGDNA; UniProt P01241 32-39, looked up, variant F10G) | inactive | – | – | –
6 | Pep (6-13) Gly^10Pro^11 α form: variant Gly^10Pro^11 of Pep (6-13), α form (LSRLGPNA; UniProt P01241 32-39, looked up, variant F10G D11P) | inactive | – | – | –
7 | Pep (6-13) Pro^11 α form: variant Pro^11 of Pep (6-13), α form (LSRLFPNA; UniProt P01241 32-39, looked up, variant D11P) | inactive | – | – | –
8 | Pep (6-13) Tyr^10 α form: variant Tyr^10 of Pep (6-13), α form (LSRLYDNA; UniProt P01241 32-39, looked up, variant F10Y) | inactive | – | – | –
9 | Pep (6-15): synthetic peptide corresponding to residues 6-15 of human growth hormone, α form (LSRLFDNAML; UniProt P01241 32-41, looked up, fragment) | active only in the β imide form | 1.26 | 0.21 | –
10 | Pep (9-13): synthetic peptide corresponding to residues 9-13 of human growth hormone, α form (LFDNA; UniProt P01241 35-39, looked up, fragment) | neither the α form nor the β imide form was active | 1.12 | 0.07 | –
